Where two headings read alike, the source gives them in different places. Values belong to the molecule of their own block, whether it stands above or below them.
Assays:
[1] = Obese mouse model (60% fat diet), initial study: food intake, body composition by MRI, physical activity; parameters: species or system C57B1/6J mice; conditions: in vivo
Method: C57B1/6J mice at 5-6 weeks of age were fed a 60% fat diet for 14 weeks and reached an average body weight of 49 grams at the start of dosing, as an obese mouse model. Employing a modified 3×3 factorial design, groups of mice (n=8 per group) received a murinized version of bimagrumab, CDD866, at 0.3 mg/kg or 20 mg/kg intraperitoneally (i.p.) weekly and/or semaglutide at 5 μg/kg or 40 μg/kg subcutaneously (s.c.) daily. The high fat diet was continued through the treatment period, and food intake and body weight were monitored twice weekly. Clinical observations, body composition by MRI, and physical activity, were assessed once weekly.

[2] = Pharmacokinetics of semaglutide and CDD866 alone and combined in DIO mice; assay type: in vivo; conditions: analyte semaglutide, mean plasma; for MRT inf / MRT last: mouse; for MRT inf: read-out: MRT0-inf; for MRT last: read-out: MRT0-last
Method: Dedicated cohorts of diet induced obesity (DIO) mice were used. Blood sampling was performed at 5 time points, with 3 mice per time point.

[3] = DIO mice: CDD866 combined with semaglutide, liraglutide or tirzepatide (body weight, fat, lean mass, food intake, open field); assay type: in vivo; conditions: Day 22, DIO mice; CDD866 20 mg/kg, semaglutide 40 μg/kg, tirzepatide 45/22.5 μg/kg (Table 4)
Method: DIO mice received a murinized version of bimagrumab, CDD866, at 20 mg/kg intraperitoneally (i.p.) weekly in combination with semaglutide (40 μg/kg once daily), liraglutide (40 μg/kg twice daily), or tirzepatide at 45 μg/kg once daily and after day 11, 22.5 μg/kg once daily) subcutaneously (s.c.). The GLP-1 agonists in this study were not dose escalated.

[4] = overweight and obese patients; cited from earlier work
[5] = group CDD866-20 mpk + Semaglutide-40 ug/kg

clinical observations [1]: no clinical observations of concern | Tlast [2, 5]: 24.0 h | Tlast ([2]; group Semaglutide-5 ug/kg): 8.00 h | Tlast ([2]; group Semaglutide-40 ug/kg): 24.0 h | MRT inf [2, 5]: 16.6 h | MRT last [2, 5]: 9.76 h | MRT last ([2]; group Semaglutide-5 ug/kg): 4.38 h | MRT inf ([2]; group Semaglutide-40 ug/kg): 15.2 h | MRT last ([2]; group Semaglutide-40 ug/kg): 10 h
Molecule: CC[C@H](C)[C@H](NC(=O)[C@H](Cc1ccccc1)NC(=O)[C@H](CCC(=O)O)NC(=O)[C@H](CCCCNC(=O)COCCOCCNC(=O)COCCOCCNC(=O)CC[C@H](NC(=O)CCCCCCCCCCCCCCCCC(=O)O)C(=O)O)NC(=O)[C@H](C)NC(=O)[C@H](C)NC(=O)[C@H](CCC(N)=O)NC(=O)CNC(=O)[C@H](CCC(=O)O)NC(=O)[C@H](CC(C)C)NC(=O)[C@H](Cc1ccc(O)cc1)NC(=O)[C@H](CO)NC(=O)[C@H](CO)NC(=O)[C@@H](NC(=O)[C@H](CC(=O)O)NC(=O)[C@H](CO)NC(=O)[C@@H](NC(=O)[C@H](Cc1ccccc1)NC(=O)[C@@H](NC(=O)CNC(=O)[C@H](CCC(=O)O)NC(=O)C(C)(C)NC(=O)[C@@H](N)Cc1cnc[nH]1)[C@@H](C)O)[C@@H](C)O)C(C)C)C(=O)N[C@@H](C)C(=O)N[C@@H](Cc1c[nH]c2ccccc12)C(=O)N[C@@H](CC(C)C)C(=O)N[C@H](C(=O)N[C@@H](CCCNC(=N)N)C(=O)NCC(=O)N[C@@H](CCCNC(=N)N)C(=O)NCC(=O)O)C(C)C [Semaglutide, semaglutide]

Molecule: tirzepatide
Body weight [3]: 40.2 ± 1.3 g | Fat [3]: 12.7 ± 1.4 g | Lean mass [3]: 25.4 ± 0.4 g

B1: Bimagrumab: ActRII receptor antibody, sequences SEQ ID NO: 1-10 (antibody, chains of the INN, looked up, V domains shown)
VH: QVQLVQSGAEVKKPGASVKVSCKASGYTFTSSYINWVRQAPGQGLEWMGTINPVSGSTSYAQKFQGRVTMTRDTSISTAYMELSRLRSDDTAVYYCARGGWFDYWGQGTLVTVSS
VL: QSALTQPASVSGSPGQSITISCTGTSSDVGSYNYVNWYQQHPGKAPKLMIYGVSKRPSGVSNRFSGSKSGNTASLTISGLQAEDEADYYCGTFAGGSYYGVFGGGTKLTVL
increase in muscle mass [4]: 4-8%
